In patent publication US20110065734A1, “NOVEL BIFUNCTIONAL COMPOUNDS WHICH INHIBIT PROTEIN KINASES AND HISTONE DEACETYLASES” (4SC AG, priority 2007, published 2011):

Legend:
HDAC11 = biological target: T1, HDAC11 (Homo sapiens, UniProt Q96DB2); details: Kalita et al. 2005; one range for HDAC1, 2, 3 and 11; cited from earlier work
T1 sequence (Q96DB2 1-347): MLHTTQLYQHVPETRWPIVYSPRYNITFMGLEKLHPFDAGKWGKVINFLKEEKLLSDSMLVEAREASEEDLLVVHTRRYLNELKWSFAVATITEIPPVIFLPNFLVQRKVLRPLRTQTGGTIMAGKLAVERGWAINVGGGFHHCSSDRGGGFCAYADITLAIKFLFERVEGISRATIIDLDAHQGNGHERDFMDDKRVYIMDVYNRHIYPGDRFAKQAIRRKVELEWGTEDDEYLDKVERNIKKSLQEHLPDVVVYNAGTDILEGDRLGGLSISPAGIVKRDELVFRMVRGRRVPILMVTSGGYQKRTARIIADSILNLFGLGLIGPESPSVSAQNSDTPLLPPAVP

HDACs 4 to 8 = details: read-out: HDACs 4 to 8 IC50; Kalita et al. 2005; cited from earlier work
[1] = test system: SKOV3 ovarian carcinoma cell line; experiment: Cellular cytotoxicity assay (Alamar Blue), SKOV3; assay type: cell-based; details: Homo sapiens, SK-OV-3; 72 h; only a range over the listed compounds is given; read-out: Cytotoxicity towards SKOV3 cell line IC50
A549 NSCLC cell line = experiment: Cellular cytotoxicity assay (Alamar Blue), A549; assay type: cell-based; details: Homo sapiens, A549; 72 h; only a range over the listed compounds is given; read-out: Cytotoxicity towards A549 NSCLC cell line IC50
[2] = test system: cellular HDAC activity in HeLa cells; experiment: Quantification of cellular HDAC activity in HeLa cells; assay type: cell-based, human; details: 4 h compound incubation; for lists of compounds only a range is printed; read-out: Inhibition of cellular HDAC activity in HeLa cells IC50
Method: To assess the cellular potency of histone deacetylase inhibitors, an assay recently described was applied (Ciossek et al. Anal Biochem e-pub 2007). 5×10^3 HeLa cervical carcinoma cells/well (ATCC CCL-2) were cultivated in 200 μl/well DMEM (containing 10% FCS) in cell culture microliter plates (white, 96 well flat bottom plates suitable for fluorimetric analysis; Costar Art. No. 3917). Cells were cultivated for 24 h under standard cell culture conditions at 37° C. and 5% CO2 to allow cell attachment and proliferation. The compounds of the present invention were added at different concentrations (dilutions done in DMSO) and incubation continued for 4 h at 37° C. under cell culture conditions (each concentration was tested in quadruplicate). […] After discarding the culture medium, 100 μl/well substrate solution (200 μM Boc-K(Ac)-AMC in DMEM (containing 10% FCS), stock solution diluted 1:250) were added and incubation continued at 37° C. under cell culture conditions for further 3 h. […] After incubation for 5 min at 37° C., cells were lysed by addition of 100 μl/well lysis buffer (50 mM TRIS pH 8, 137 mM NaCl, 2.7 mM KCl, 1 mM MgCl2, 1 vol % NP-40) and further incubation for 20 min at 37° C. Finally, the amount of AMC was quantified using the Wallac Victor device (extinction λ=355 nm, emission at λ=460 inn).

[3] = test system: HeLa cervical carcinoma cell line; experiment: Cellular cytotoxicity assay (Alamar Blue), HeLa; assay type: cell-based; details: Homo sapiens, 72 h, only a range over the listed compounds is given, read-out: Cytotoxicity towards HeLa cervical cell line IC50
[4] = test system: histone H3 hyperacetylation in HeLa cervical carcinoma cells; experiment: Cellular histone H3 hyperacetylation assay; assay type: cell-based; details: Homo sapiens, 24 h, only a range over the listed compounds is given, read-out: Induction of histone H3 hyperacetylation in HeLa cervical carcinoma cells EC50
[5] = biological target: T2, recombinant HDAC1 isolated from HEK293 cells with heterologous HDAC1 expression (Homo sapiens, UniProt Q13547); experiment: Fluorimetric rHDAC1 activity assay; assay type: biochemical; details: only a range of IC50 over the compounds given; read-out: rHDAC1 inhibitory activity IC50
T2 construct: made in house

[6] = test system: Cal27 head and neck cancer cell line; experiment: Cellular cytotoxicity assay (Alamar Blue), Cal27; assay type: cell-based; details: Homo sapiens, CAL-27; 72 h; only a range over the listed compounds is given; read-out: Cytotoxicity towards Cal27 cell line IC50
Method: The anti-proliferative activity of the chimeric HDAC and protein kinase inhibitory chimeric compounds of the present invention was evaluated using HeLa cervical carcinoma, A549 NSCLC, SKOV3 ovarian carcinoma, Cal27 head and neck cancer, K562 chronic myeloid leukemia (CML) and EOL1 acute hypereosinophilic myeloid leukemia, cell lines. For quantification of cellular proliferation/living cells the Alamar Blue (Resazurin) cell viability assay was applied (O'Brien et al. Eur Biochem. 267, 5421-5426, 2000). In this assay Resazurin is reduced to the fluorescent resorufin by cellular dehydrogenase activity, correlating with viable, proliferating cells. The examples were dissolved as 20 mM solutions in dimethylsulfoxide (DMSO) and subsequently diluted in semi-logarithmic steps. Cell lines were seeded at respective density into 96 well flat bottom plates in a volume of 200 μl per well. 24 h after seeding 1 μl each of the compound dilutions were added into each well of the 96 well plate. Each compound dilution was tested as quadruplicates. Wells containing untreated control cells were filled with […] DMEM medium containing 0.5% v:v DMSO. The cells were then incubated with the substances for 72 h at 37° C. in a humidified atmosphere containing 5% carbon dioxide. To determine the viability of the cells, 20 μl of an Resazurin solution (Sigma; 90 mg/l) were added. After 4 h incubation at 37° C. the fluorescence was measured at an extinction of 544 nm and an emission of 590 nm. For the calculation of the cell viability the emission value from untreated cells was set as 100% viability and the emission rates of treated cells were set in relation to the values of untreated cells. Viabilities were expressed as % values. The corresponding IC50 values of the compounds for cytotoxic activity are determined from the concentration-effect curves by means of non-linear regression.

T2 sequence (Q13547 whole entry): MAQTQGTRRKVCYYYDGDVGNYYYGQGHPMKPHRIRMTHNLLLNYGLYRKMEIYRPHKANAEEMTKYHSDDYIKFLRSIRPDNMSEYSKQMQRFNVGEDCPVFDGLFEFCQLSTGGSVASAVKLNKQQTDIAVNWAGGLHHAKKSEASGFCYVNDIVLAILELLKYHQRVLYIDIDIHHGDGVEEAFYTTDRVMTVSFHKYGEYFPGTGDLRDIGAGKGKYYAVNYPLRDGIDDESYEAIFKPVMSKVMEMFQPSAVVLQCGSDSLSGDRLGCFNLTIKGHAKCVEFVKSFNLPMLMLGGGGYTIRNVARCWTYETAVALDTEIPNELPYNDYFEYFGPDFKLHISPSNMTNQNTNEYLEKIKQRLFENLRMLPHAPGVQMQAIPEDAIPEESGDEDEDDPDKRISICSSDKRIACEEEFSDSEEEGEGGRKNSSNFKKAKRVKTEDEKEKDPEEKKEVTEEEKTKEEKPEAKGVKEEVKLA

Row | IC50 [2] [nM] | EC50 [4] [nM] | IC50 [5] [nM] | Structure (SMILES) | IC50 (HDAC11) [nM] | IC50 (HDACs 4 to 8) [nM] | IC50 [1] [nM] | IC50 (A549 NSCLC cell line) [nM] | IC50 [3] [nM] | IC50 [6] [nM]
1 | – | – | – | Nc1ccccc1NC(=O)c1ccc(CNc2nccc(-c3cccnc3)n2)cc1 [MGCD0103] | 100 to 2000 | > 20000 | – | – | – | –
2 | 430 | ≥ 3650 | ≥ 35.3 | O=C(/C=C/c1cccc(-c2ccc3ncnc(Nc4ccc(OCc5cccc(F)c5)c(Cl)c4)c3c2)c1)NO [[9], E-3-(3-(4-(3-chloro-4-(3-fluorobenzyloxy)phenylamino)quinazolin-6-yl)phenyl)-N-hydroxy-acrylamide] | – | – | ≥ 1000 | ≥ 1100 | 910 to 9400 | ≥ 280
